In ChEMBL document CHEMBL2057111, “(+)-Pinoresinol is a putative hypoglycemic agent in defatted sesame (Sesamum indicum) seeds though inhibiting α-glucosidase” (Bioorg Med Chem Lett, 2012) one finds inhibition and IC50 data, which are given here for 4 molecules.

The source made the active and inactive calls. No cut-off for these calls is given here.

Test [1] concerns the target Sucrase-isomaltase, intestinal (Rattus norvegicus) (UniProt P23739). The test is described as follows: Inhibition of rat intestinal sucrase using sucrose as substrate at 10 mg/ml preincubated for 10 mins before substrate addition by glucose oxidase method.
Test [2] concerns the target Lysosomal alpha-glucosidase (Rattus norvegicus) (UniProt Q6P7A9). The test is described as follows: Inhibition of rat intestinal maltase using maltose as substrate at 10 mg/ml preincubated for 10 mins before substrate addition by glucose oxidase method.
The next test has as its system Saccharomyces cerevisiae. Nature of the test: Inhibition of bakers yeast alpha-glucosidase using p-nitrophenyl-(alpha-D-glucopyranoside) as substrate at 10 mg/ml preincubated for 10 mins before substrate addition by microplate reader.
Test [3] in a line: Inhibition of bakers yeast alpha-glucosidase using p-nitrophenyl-(alpha-D-glucopyranoside) as substrate preincubated for 10 mins before substrate addition by microplate reader. On the set-up: species or system Saccharomyces cerevisiae.
The target of test [4] is Lysosomal alpha-glucosidase (Rattus norvegicus) (UniProt Q6P7A9). Particulars: 0.1 to 1 mg/ml.
Lysosomal alpha-glucosidase (Rattus norvegicus), sequence (Q6P7A9 whole entry): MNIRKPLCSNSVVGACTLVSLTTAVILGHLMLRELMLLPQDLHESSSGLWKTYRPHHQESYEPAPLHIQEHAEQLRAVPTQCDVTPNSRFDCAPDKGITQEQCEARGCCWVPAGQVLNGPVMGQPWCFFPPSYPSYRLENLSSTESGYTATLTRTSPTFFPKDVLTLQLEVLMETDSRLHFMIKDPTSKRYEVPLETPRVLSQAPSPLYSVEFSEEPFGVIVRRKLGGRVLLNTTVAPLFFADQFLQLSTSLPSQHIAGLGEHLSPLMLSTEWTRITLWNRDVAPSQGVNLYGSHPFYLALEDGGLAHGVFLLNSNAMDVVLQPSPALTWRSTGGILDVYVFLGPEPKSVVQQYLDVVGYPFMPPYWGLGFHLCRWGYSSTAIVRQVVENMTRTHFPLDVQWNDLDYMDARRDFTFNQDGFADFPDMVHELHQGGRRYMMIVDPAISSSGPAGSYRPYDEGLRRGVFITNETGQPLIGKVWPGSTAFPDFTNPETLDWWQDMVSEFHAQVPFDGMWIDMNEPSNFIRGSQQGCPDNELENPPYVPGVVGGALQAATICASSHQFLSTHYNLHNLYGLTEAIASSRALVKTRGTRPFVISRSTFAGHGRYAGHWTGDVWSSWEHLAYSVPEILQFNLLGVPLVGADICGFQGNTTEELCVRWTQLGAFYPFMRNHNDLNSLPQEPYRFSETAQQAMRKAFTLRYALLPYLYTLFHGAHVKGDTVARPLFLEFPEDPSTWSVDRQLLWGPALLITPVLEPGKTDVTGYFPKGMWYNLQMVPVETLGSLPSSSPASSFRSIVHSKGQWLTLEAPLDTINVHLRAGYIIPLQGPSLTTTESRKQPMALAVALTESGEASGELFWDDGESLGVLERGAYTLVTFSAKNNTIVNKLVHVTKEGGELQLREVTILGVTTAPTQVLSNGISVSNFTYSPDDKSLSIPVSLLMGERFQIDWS
Description: Mixed type inhibition of rat intestinal maltase using maltose as substrate at 0.1 to 1 mg/ml
Test [5] has the same target. The settings on record: 0.1 to 1 mg/ml. This is another data set of the same source.
Description: Non-competitive inhibition of rat intestinal maltase using maltose as substrate assessed as enzyme-substrate-inhibitor complex formation at 0.1 to 1 mg/ml by Lineweaver-Burk plot analysis
Test [6] shares this target. Particulars: 0.1 to 1 mg/ml. The source holds these as a separate data set.

Sucrase-isomaltase, intestinal (Rattus norvegicus), sequence (P23739 1-1013 limits assumed): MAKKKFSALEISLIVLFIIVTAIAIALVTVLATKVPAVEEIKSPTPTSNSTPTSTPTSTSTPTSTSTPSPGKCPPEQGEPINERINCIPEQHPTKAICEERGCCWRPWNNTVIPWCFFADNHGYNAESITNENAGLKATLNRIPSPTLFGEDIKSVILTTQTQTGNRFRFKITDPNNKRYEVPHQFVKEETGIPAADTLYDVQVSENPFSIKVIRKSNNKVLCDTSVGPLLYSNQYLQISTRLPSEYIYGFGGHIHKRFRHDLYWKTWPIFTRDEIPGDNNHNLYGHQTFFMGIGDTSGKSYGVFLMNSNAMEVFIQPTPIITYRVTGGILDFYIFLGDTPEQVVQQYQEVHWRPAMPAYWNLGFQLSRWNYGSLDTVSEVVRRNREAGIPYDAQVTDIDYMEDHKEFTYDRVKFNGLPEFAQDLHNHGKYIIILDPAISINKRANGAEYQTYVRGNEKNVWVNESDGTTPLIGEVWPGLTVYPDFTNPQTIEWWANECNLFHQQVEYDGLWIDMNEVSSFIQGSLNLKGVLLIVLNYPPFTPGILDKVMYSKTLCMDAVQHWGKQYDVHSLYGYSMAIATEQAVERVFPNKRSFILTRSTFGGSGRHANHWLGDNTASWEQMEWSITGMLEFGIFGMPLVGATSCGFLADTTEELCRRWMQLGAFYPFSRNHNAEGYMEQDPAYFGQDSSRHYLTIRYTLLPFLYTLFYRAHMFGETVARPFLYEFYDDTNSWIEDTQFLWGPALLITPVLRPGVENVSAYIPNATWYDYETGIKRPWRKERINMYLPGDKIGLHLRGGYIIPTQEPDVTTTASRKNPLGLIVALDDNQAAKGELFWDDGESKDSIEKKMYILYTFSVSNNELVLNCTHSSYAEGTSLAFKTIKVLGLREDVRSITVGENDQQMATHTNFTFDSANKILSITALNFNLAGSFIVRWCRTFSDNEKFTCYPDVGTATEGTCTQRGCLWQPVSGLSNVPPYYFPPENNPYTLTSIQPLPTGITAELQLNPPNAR
Sucrase-isomaltase, intestinal (Rattus norvegicus), sequence (P23739 1014-1841 limits assumed): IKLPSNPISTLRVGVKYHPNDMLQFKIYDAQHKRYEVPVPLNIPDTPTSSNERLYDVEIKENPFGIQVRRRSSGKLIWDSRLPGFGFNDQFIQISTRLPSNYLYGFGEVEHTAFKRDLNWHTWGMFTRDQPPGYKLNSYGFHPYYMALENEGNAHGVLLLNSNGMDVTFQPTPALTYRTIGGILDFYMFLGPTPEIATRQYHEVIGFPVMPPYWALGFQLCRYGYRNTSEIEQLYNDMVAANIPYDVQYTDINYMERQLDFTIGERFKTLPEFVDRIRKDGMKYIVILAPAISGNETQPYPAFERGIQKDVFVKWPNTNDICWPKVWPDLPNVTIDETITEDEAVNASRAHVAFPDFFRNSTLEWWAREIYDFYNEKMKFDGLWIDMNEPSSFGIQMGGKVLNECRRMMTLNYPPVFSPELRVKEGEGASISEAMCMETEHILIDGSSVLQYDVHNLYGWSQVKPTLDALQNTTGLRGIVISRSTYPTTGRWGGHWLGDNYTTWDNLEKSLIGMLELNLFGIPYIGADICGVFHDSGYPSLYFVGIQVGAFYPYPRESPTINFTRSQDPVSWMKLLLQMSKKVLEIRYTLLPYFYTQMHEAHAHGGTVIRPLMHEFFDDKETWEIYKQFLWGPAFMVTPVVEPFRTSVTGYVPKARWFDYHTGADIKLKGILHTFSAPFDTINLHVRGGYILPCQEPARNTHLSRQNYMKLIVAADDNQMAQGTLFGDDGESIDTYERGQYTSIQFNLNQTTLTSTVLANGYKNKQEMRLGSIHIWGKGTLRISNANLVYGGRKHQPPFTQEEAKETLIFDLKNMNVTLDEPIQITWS

For `OC[C@H]1O[C@@H](Oc2cc3c(cc2[C@H]2OC[C@H]4[C@@H]2CO[C@@H]4c2ccc4c(c2)OCO4)OCO3)[C@H](O)[C@@H](O)[C@@H]1O`, the inhibition (in test [1]; in test [2]; with Saccharomyces cerevisiae) was under 30% in each case.
As for `COc1cc([C@@H]2OC[C@@H]3[C@H]2CO[C@H]3c2ccc(O)c(OC)c2)ccc1O` [(+)-PINORESINOL], in test [1], the inhibition was under 30%. Further, in test [3], the IC50 was 492 µM. Moreover, the inhibition entry in test [4], in test [5] and in test [6] was “Active” throughout.
`c1cc2c(cc1[C@H]1OC[C@H]3[C@@H]1CO[C@@H]3c1ccc3c(c1)OCO3)OCO2` [SESAMIN]: the inhibition in test [1] and in test [2] was under 30% each time. The molecule further returned an IC50 in test [3] of 450 µM.
Consider `c1cc2c(cc1O[C@H]1OC[C@H]3[C@@H]1CO[C@@H]3c1ccc3c(c1)OCO3)OCO2` [SESAMOLIN], for which the inhibition in test [1] and in test [2] was under 30% each time. Besides, the IC50 in test [3] is 200 µM.
